Laboratory results taken from patent US12157730B2, “Heteroaryl derivative, method for producing same, and pharmaceutical composition comprising same as effective component” (VORONOI INC., priority 2019, dated 2024).

Biological target: T1, Ba/F3 cell EGFR Exon20 ins NPH (Homo sapiens, UniProt P00533, INS773NPH)
T1 construct: expressed in transfected cells; host or cells: Ba/F3
Experiment: Ba/F3 cell proliferation suppression, EGFR Exon20 ins NPH
Format: cell-based
Details: GI50 class; Ba/F3 cell line with NPH inserted at Exon20 of EGFR; 72 hours
Method in brief: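 Growth suppression determined as GI50 following 72 h exposure across 12 concentrations up to 50 um, with viability by luminescent ATP assay (CellTiter-Glo).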

C=CC(=O)Nc1cc(Nc2cc(N3OCC[C@@H]3c3cc(F)cc(F)c3)ncn2)c(OC)cc1N1CCC(N2CCN(C3CC3)C(C)(C)C2)CC1 [Example 106, N-(2-(4-(4-cyclopropyl-3,3-dimethylpiperazine-1-yl)piperidine-1-yl)-5-((6-((R)-3-(3,5-difluorophenyl)isoxazolidine-2-yl)pyrimidine-4-yl)amino)-4-methoxyphenyl) acrylamide]
Ba/F3 (NPH) Activity: A (GI50 < 50 nM)

C=CC(=O)Nc1cc(Nc2cc(N3OCC[C@@H]3c3cccc(Cl)c3)ncn2)c(OC)cc1N1CCC(N2CCN(C3COC3)CC2)CC1 [Example 199, N-(5-((6-((R)-3-(3-chlorophenyl)isoxazolidine-2-yl)pyrimidine-4-yl)amino)-4-methoxy-2-(4-(4-(oxetane-3-yl)piperazine-1-yl)piperidine-1-yl)phenyl)acrylamide]
Ba/F3 (NPH) Activity: A (GI50 < 50 nM)

C=CC(=O)Nc1cc(Nc2cc(N3OCC[C@@H]3c3ccccc3)ncn2)c(OC)cc1N1CCC(N2CCN(CCN(C)C)CC2)CC1 [compound 739, N-(2-(4-(4-(2-(dimethylamino)ethyl)piperazine-1-yl)piperidine-1-yl)-4-methoxy-5-((6-((R)-3-phenylisoxazolidine-2-yl)pyrimidine-4-yl)amino)phenyl) acrylamide]
Ba/F3 (NPH) Activity: B (50 nM ≤ GI50 < 500 nM)

C=CC(=O)Nc1cc(Nc2cc(N3OCC[C@@H]3c3cc(F)cc(F)c3)ncn2)c(OC)cc1N1CCN(C)[C@@H](C)C1 [compound 916, N-(5-((6-((R)-3-(3,5-difluorophenyl)isoxazolidine-2-yl)pyrimidine-4-yl)amino)-2-((S)-3,4-dimethylpiperazine-1-yl)-4-methoxyphenyl) acrylamide]
Ba/F3 (NPH) Activity: A (GI50 < 50 nM)

C=CC(=O)Nc1cc(Nc2cc(N3OCC[C@@H]3c3cccc(C#N)c3)ncn2)c(OC)cc1N1CCC(N2CCOCC2)CC1 [compound 400, N-(5-((6-((R)-3-(3-cyanophenyl)isoxazolidine-2-yl)pyrimidine-4-yl)amino)-4-methoxy-2-(4-morpholinopiperidine-1-yl)phenyl)acrylamide]
Ba/F3 (NPH) Activity: A (GI50 < 50 nM)

C=CC(=O)Nc1cc(Nc2cc(N3OCC[C@@H]3c3ccc(F)c(Cl)c3)ncn2)c(OC)cc1N1CCC(N2CC[C@H](N(C)C)C2)CC1 [compound 764, N-(5-((6-((R)-3-(3-chloro-4-fluorophenyl)isoxazolidine-2-yl)pyrimidine-4-yl)amino)-2-(4-((S)-3-(dimethylamino)pyrolidine-1-yl)piperidine-1-yl)-4-methoxyphenyl) acrylamide]
Ba/F3 (NPH) Activity: A (GI50 < 50 nM)

C=CC(=O)Nc1cc(Nc2cc(N3OCC[C@@H]3c3ccc(F)c(F)c3F)ncn2)c(OC)cc1N1CCN(C)CC1 [compound 572, N-(4-methoxy-2-(4-methylpiperazine-1-yl)-5-((6-((R)-3-(2,3,4-trifluorophenyl)isoxazolidine-2-yl)pyrimidine-4-yl)amino)phenyl) acrylamide]
Ba/F3 (NPH) Activity: A (GI50 < 50 nM)

C=CC(=O)Nc1cc(Nc2cc(N3OCC[C@@H]3c3cccc(Cl)c3)ncn2)c(OC)cc1N1CCC(N2CCN(C)CC2)CC1 [compound 416]
Ba/F3 (NPH) Activity: A (GI50 < 50 nM)

C=CC(=O)Nc1cc(Nc2cc(N3OCC[C@@H]3c3ccc(F)c(Cl)c3)ncn2)c(OC)cc1N1CCC(N2CCN(C)CC2)CC1 [compound 719, N-(5-((6-((R)-3-(3-chloro-4-fluorophenyl)isoxazolidine-2-yl)pyrimidine-4-yl)amino)-4-methoxy-2-(4-(4-methylpiperazine-1-yl)piperidine-1-yl)phenyl) acrylamide]
Ba/F3 (NPH) Activity: A (GI50 < 50 nM)

C=CC(=O)Nc1cc(Nc2cc(N3OCC[C@@H]3c3ccccc3)ncn2)c(OC)cc1N1CCC(N2CC[C@@H](N(C)C)C2)CC1 [compound 787, N-(2-(4-((R)-3-(dimethylamino)pyrolidine-1-yl)piperidine-1-yl)-4-methoxy-5-((6-((R)-3-phenylisoxazolidine-2-yl)pyrimidine-4-yl)amino)phenyl) acrylamide]
Ba/F3 (NPH) Activity: A (GI50 < 50 nM)

C=CC(=O)Nc1cc(Nc2cc(N3OCC[C@@H]3c3cc(F)cc(Cl)c3)ncn2)c(OC)cc1N1CC(N2CCN(C3CC3)CC2)C1 [compound 587, N-(5-((6-((R)-3-(3-chloro-5-fluorophenyl)isoxazolidine-2-yl)pyrimidine-4-yl)amino)-2-(3-(4-cyclopropylpiperazine-1-yl)azetidine-1-yl)-4-methoxyphenyl) acrylamide]
Ba/F3 (NPH) Activity: B (50 nM ≤ GI50 < 500 nM)

C=CC(=O)Nc1cc(Nc2cc(N3OCC[C@@H]3c3ccc(C)nc3)ncn2)c(OC)cc1N1CCC(N2C[C@H]3C[C@@H]2CO3)CC1 [Example 227, N-(2-(4-((1R,4R)-2-oxa-5-azabicyclo[2.2.1]heptane-5-yl)piperidine-1-yl)-4-methoxy-5-((6-((R)-3-(6-methylpyridine-3-yl)isoxazolidine-2-yl)pyrimidine-4-yl)amino)phenyl)acrylamide]
Ba/F3 (NPH) Activity: B (50 nM ≤ GI50 < 500 nM)

C=CC(=O)Nc1cc(Nc2cc(N3OCC[C@@H]3c3cccc(C(F)(F)F)c3)ncn2)c(OC)cc1N1CCN(C)CC1 [compound 450, N-(4-methoxy-2-(4-methylpiperazine-1-yl)-5-((6-((R)-3-(3-(trifluoromethyl)phenyl)isoxazolidine-2-yl)pyrimidine-4-yl)amino)phenyl)acrylamide]
Ba/F3 (NPH) Activity: A (GI50 < 50 nM)

C=CC(=O)Nc1cc(Nc2cc(N3OCC[C@@H]3c3c(F)ccc(F)c3Cl)ncn2)c(OC)cc1N1CCC(N2C[C@@H]3C[C@H]2CO3)CC1 [compound 693, N-(2-(4-((1S,4S)-2-oxa-5-azabicyclo[2.2.1]heptane-5-yl)piperidine-1-yl)-5-((6-((R)-3-(2-chloro-3,6-difluorophenyl)isoxazolidine-2-yl)pyrimidine-4-yl)amino)-4-methoxyphenyl) acrylamide]
Ba/F3 (NPH) Activity: A (GI50 < 50 nM)

C=CC(=O)Nc1cc(Nc2cc(N3OCC[C@H]3c3c(F)cccc3F)ncn2)c(OC)cc1N(C)CCN(C)C [compound 306, N-(5-((6-((S)-3-(2,6-difluorophenyl)isoxazolidine-2-yl)pyrimidine-4-yl)amino)-2-((2-(dimethylamino)ethyl)(methyl)amino)-4-methoxyphenyl) acrylamide]
Ba/F3 (NPH) Activity: B (50 nM ≤ GI50 < 500 nM)

C=CC(=O)Nc1cc(Nc2cc(N3OCC[C@@H]3c3ccc(Cl)c(F)c3)ncn2)c(OC)cc1N1CCOCC1 [compound 854, N-(5-((6-((R)-3-(4-chloro-3-fluorophenyl)isoxazolidine-2-yl)pyrimidine-4-yl)amino)-4-methoxy-2-morpholinophenyl) acrylamide]
Ba/F3 (NPH) Activity: A (GI50 < 50 nM)

C=CC(=O)Nc1cc(Nc2cc(N3OCC[C@@H]3c3cccc(C)c3F)ncn2)c(OC)cc1N1CCC(N2C[C@H](C)N(C3CC3)C[C@@H]2C)CC1 [Example 123, N-(2-(4-((2S,5S)-4-cyclopropyl-2,5-dimethylpiperazine-1-yl)piperidine-1-yl)-5-((6-((R)-3-(2-fluoro-3-methylphenyl)isoxazolidine-2-yl)pyrimidine-4-yl)amino)-4-methoxyphenyl) acrylamide]
Ba/F3 (NPH) Activity: A (GI50 < 50 nM)

C=CC(=O)Nc1cc(Nc2cc(N3OCC[C@@H]3c3cc(F)ccc3F)ncn2)c(OC)cc1N1CCC(N2CC3CCC(C2)O3)CC1 [compound 820, N-(2-(4-(8-oxa-3-azabicyclo[3.2.1]octan-3-yl)piperidine-1-yl)-5-((6-((R)-3-(2,5-difluorophenyl)isoxazolidine-2-yl)pyrimidine-4-yl)amino)-4-methoxyphenyl) acrylamide]
Ba/F3 (NPH) Activity: A (GI50 < 50 nM)

C=CC(=O)Nc1cc(Nc2cc(N3OCC[C@@H]3c3cccc(C#N)c3)ncn2)c(OC)cc1N1CCC(N2CCN(C3CC3)C[C@@H]2C)CC1 [Example 132, N-(5-((6-((R)-3-(3-cyanophenyl)isoxazolidine-2-yl)pyrimidine-4-yl)amino)-2-(4-((S)-4-cyclopropyl-2-methylpiperazine-1-yl)piperidine-1-yl)-4-methoxyphenyl) acrylamide]
Ba/F3 (NPH) Activity: B (50 nM ≤ GI50 < 500 nM)

C=CC(=O)Nc1cc(Nc2cc(N3OCC[C@@H]3c3ccc(Cl)c(Cl)c3)ncn2)c(OC)cc1N1CCC(N2C[C@@H]3C[C@H]2CO3)CC1 [compound 688, N-(2-(4-((1S,4S)-2-oxa-5-azabicyclo[2.2.1]heptane-5-yl)piperidine-1-yl)-5-((6-((R)-3-(3,4-dichlorophenyl)isoxazolidine-2-yl)pyrimidine-4-yl)amino)-4-methoxyphenyl) acrylamide]
Ba/F3 (NPH) Activity: A (GI50 < 50 nM)

C=CC(=O)Nc1cc(Nc2cc(N3OCC[C@@H]3c3cc(F)cc(F)c3)ncn2)c(OC)cc1N1CCC(N2C[C@H]3CC[C@@H](C2)O3)CC1 [compound 759, N-(2-(4-((1R,5S)-8-oxa-3-azabicyclo [3.2.1]octan-3-yl)piperidine-1-yl)-5-((6-((R)-3-(3,5-difluorophenyl)isoxazolidine-2-yl)pyrimidine-4-yl)amino)-4-methoxyphenyl) acrylamide]
Ba/F3 (NPH) Activity: B (50 nM ≤ GI50 < 500 nM)

C=CC(=O)Nc1cc(Nc2cc(N3OCC[C@@H]3c3ccc(Cl)cc3F)ncn2)c(OC)cc1N1CCC(N2CCN(C(C)C)CC2)CC1 [compound 408, N-(5-((6-((R)-3-(4-chloro-2-fluorophenyl)isoxazolidine-2-yl)pyrimidine-4-yl)amino)-2-(4-(4-isopropylpiperazine-1-yl)piperidine-1-yl)-4-methoxyphenyl) acrylamide]
Ba/F3 (NPH) Activity: A (GI50 < 50 nM)

C=CC(=O)Nc1cc(Nc2cc(N3OCC[C@@H]3c3cccc(Cl)c3C)ncn2)c(OC)cc1N1CCC(N2CCO[C@@H](C)C2)CC1 [compound 529, N-(5-((6-((R)-3-(3-chloro-2-methylphenyl)isoxazolidine-2-yl)pyrimidine-4-yl)amino)-4-methoxy-2-(4-((S)-2-methylmorpholino)piperidine-1-yl)phenyl) acrylamide]
Ba/F3 (NPH) Activity: A (GI50 < 50 nM)
